Literature values as cited in patent US20240189229A1, “LIQUID PHARMACEUTICAL COMPOSITIONS OF BACLOFEN FOR ORAL ADMINISTRATION” (ANI Pharmaceuticals, Inc., priority 2022, published 2024).
Like-named read-outs stand apart in the source and are kept apart here.

Concentration of baclofen obtained by dissolving (aqueous solution of 0.1N HCl (Ahuja 1985)): greater than 20 mg/mL | Concentration of baclofen obtained by dissolving (aqueous solution of 0.1N NaOH (Ahuja 1985)): greater than 20 mg/mL | Solubility in chloroform (chloroform): insoluble | Solubility in methanol (methanol): very slightly soluble | Solubility in water (water): slightly soluble
SMILES: NCC(CC(=O)O)c1ccc(Cl)cc1 (centres unmarked) [Baclofen, 4-amino-3-(4-chlorophenyl)-butanoic acid]
